According to patent EP4628084A1, “NAPHTHALENE-DERIVATIVE-BASED THERAPEUTIC DRUG FOR OPHTHA[…]” (Kyoto University, priority 2022, dated 2024):

How the values were obtained:
Format in all cases: physicochemical
[1] = Solubility of KUS121 in water; conditions: at 25°C
[2] = Preliminary experiment: soluble concentration of KUS121 in normal PBS buffer
Description: The maximum dose of KUS121 to the vitreous body of the eye is 50 µg/eye, and the liquid volume that can be administered into the vitreous body is preferably about 100 µL or less. […] In view of these premises and the above-mentioned problems, the present inventors have extensively studied to design an injection formulation of KUS121 in a normal PBS buffer that can be administered into the vitreous body, wherein about 50 µg of KUS121 is dissolved in a normal PBS buffer (about 100 µL), i.e., a formulation that allows a concentration setting of 0.5 mg/mL and matches the osmotic pressure in the vitreous body. As a result, the present inventors have conducted the following trials and then have found the following things: i.e., the present inventors first prepared 1 mL of 0.1 mg/mL KUS121 aqueous solution by dissolving KUS121 in water for injection and then adding a PBS buffer solution with about twice the concentration of normal to the KUS121 solution, in which the PBS concentration is 1/5 of the normal concentration. Then, the prepared KUS121 aqueous solution was lyophilized, and 200 µL (0.2 mL) of water for injection [200 µL (0.2 mL) corresponds to 1/5 the volume before the lyophilization] was added to the lyophilized product. […]

[3] = Solubility of KUS121 in PBS buffer at different temperatures (filtrate quantified by HPLC); conditions: for solubility of KUS121: detection limit about 1 µg/mL, quantification limit 5 µg/mL; for solubility: PBS buffer solution, aqueous buffer, thermodynamic from solid
Description: A PBS buffer solution comprising 1.6 mg of sodium chloride, 0.229 mg of disodium hydrogen phosphate, 0.04 mg of potassium dihydrogen phosphate, and 0.04 mg of potassium chloride per mL of the solution was prepared, and the temperature of the PBS buffer solution was adjusted to 5°C, 25°C, 40°C, 50°C, and 60°C. KUS121 was added little by little to each solution at the different temperatures and stirred. After stirring for a sufficient time period from the time when some undissolved material appeared, the solution was filtered. As a result of quantifying the filtrate using HPLC, the solubility of KUS121 at each temperature was as follows (detection limit: about 1 µg/mL, quantification limit: 5 µg/mL) .

Cc1cc(F)ccc1-c1ccc(N=Nc2cc(S(=O)(=O)[O-])c3ccccc3c2N)cn1.O.O.[Na+] [KUS121, Sodium 4-amino-3-[6-(4-fluoro-2-methylphenyl)pyridin-3-ylazo]naphthalene-1-sulfonate dihydrate]
solubility [1]: ~2800 µg/mL | solubility of KUS121 in PBS buffer ([2]; PBS buffer, result in words): extremely low | solubility ([2]; normal PBS buffer solution, aqueous buffer, normal PBS buffer, room temperature, preliminary experiment): ≤ 10 µg/mL | solubility of KUS121 ([3]; 5°C): below detection limit | solubility of KUS121 ([3]; 25°C): below detection limit | solubility ([3]; 40°C): 7 µg/mL | solubility ([3]; 50°C): 47 µg/mL | solubility ([3]; 60°C): 132 µg/mL
